Key:
[1] = Inhibition of GST-tagged MDM2 (1-150) / full-length His6-tagged p53 interaction expressed in Escherichia coli by alphascreen assay
[2] = Inhibition of GST-tagged MDM2/His6-tagged p53 interaction by ELISA
[3] = Inhibition of GST-tagged MDM2/His6-tagged p53 interaction at 100 uM by ELISA

IC50 [1] [µM]	IC50 [2] [µM]	inhibition [3] [%]	SMILES
13			c1ccc(/C(=N/Nc2nc3ccccc3s2)c2ccccn2)cc1.c1ccc(/C(=N\Nc2nc3ccccc3s2)c2ccccn2)cc1 (mixture of isomers; form 1)
25	20		c1ccc(/C(=N/Nc2nc3ccccc3s2)c2ccccn2)cc1.c1ccc(/C(=N\Nc2nc3ccccc3s2)c2ccccn2)cc1 (mixture of isomers; form 2) [listing 1 of 2 here]
		> 50	c1ccc(/C(=N/Nc2nc3ccccc3s2)c2ccccn2)cc1.c1ccc(/C(=N\Nc2nc3ccccc3s2)c2ccccn2)cc1 (mixture of isomers; form 2) [listing 2 of 2 here]
0.25			COc1ccc(C2=N[C@@H](c3ccc(Cl)cc3)[C@@H](c3ccc(Cl)cc3)N2C(=O)N2CCNC(=O)C2)c(OC(C)C)c1 [NUTLIN-3]

From ChEMBL document CHEMBL1151933, “Identification of a disruptor of the MDM2-p53 protein-protein interaction facilitated by high-throughput in silico docking” (Bioorg Med Chem Lett, 2009)
